Broadly, the melting point is the temperature, or range, at which the solid turns liquid.

The text below walks through data of a melting point compilation (Tetko et al.; mined from patent text by program, amines drawn as free bases though some values may be those of a salt).

Residues, ends and D or L forms follow the SMILES beside them. *: point of attachment. Boc = CC(C)(C)OC(=O)*; OBn = c1ccc(CO*)cc1

The molecule `O=C(NCCN1CCC(O)(c2ccc(Cl)cc2)CC1)c1cccs1` had a melting point of 153 °C.
In turn, `CCc1c(N)c(C(N)=O)nn1CCN1CCOCC1` displayed a melting point of 152 to 153 °C.
Then `CN(C)C1CC2c3ccccc3Cc3ccccc3N2C1` (stereo not drawn), with 124 to 128 °C.
For `CCOC(=O)C1=C(C)NC(C)=C(C(=O)OCC)C1c1csc2ccccc12` the value was 139 to 142 °C; for `c1cc(C2CCC(c3ccc(OCC4CO4)cc3)CC2)ccc1OCC1CO1` (stereo not drawn), 154 °C.
For `COc1ccc(Nc2ccccc2)c(NS(C)(=O)=O)c1` the value was 109 to 111 °C.
Turning to `CNc1c(F)cc2c(=O)c(C(=O)O)cn(-c3nc(N)c(F)cc3F)c2c1Br`, the melting point is 205 to 208 °C.
Take `ClCc1c(Cl)c(Cl)c(Cl)c(Cl)c1CCl`: the melting point lay within 83 to 84 °C.
Then `CCCC1=C(C(=O)OCC)C(c2ccccc2[N+](=O)[O-])c2c[nH]nc2N1` (stereo not drawn), with 218 °C; and `Clc1nc(Cl)c(-c2ccccc2)c(-c2ccccc2)n1`, with 144 to 146 °C.
`FC(F)C(F)(F)Oc1cccc(Nc2nccc(-c3cccc(OC(F)(F)F)c3)n2)c1` registered a melting point of 98 to 100 °C.
Then `Cc1c(C(=O)O)cnn1-c1c(Cl)cccc1Cl`, with 180 to 182 °C; and `O=c1c2ccccc2nc(-c2ccccc2)n1CCN1CCC(c2c[nH]c3ccccc23)CC1`, with 191 °C.
With `CC(=O)OCc1c(CNC(=O)c2ccc(C(=O)O)cc2)ccc2c1C(C)(C)CCC2(C)C`, the melting point was 95 to 100 °C.
For `Cc1cccc(NC(=O)NCC(=O)N(c2ccccc2)C(C(=O)OC(C)(C)C)c2ccc(N)cc2)c1` (racemic) the value was 108 °C.
For `CCCCCC(CCCCC)=NN=C1NC(=O)C(CC(=O)O)S1` (stereo not drawn) the value was 134 to 135 °C; for `CCC(=O)c1ccc(COc2ccc(CO)c(CO)c2)s1`, 123 °C; for `CNC(=O)c1cc2nc(C(F)(F)F)ccc2c(OC)c1NC(=O)c1cc(C(F)(F)F)nn1-c1ncccc1Cl`, 209 to 211 °C.
Consider `S=C(Nc1ccccc1)N1CCc2[nH]cnc2C1`, for which the melting point was found to be 205 °C.
Then `CC(Cl)C(=O)CCCCN1C(=O)c2ccccc2C1=O` (stereo not drawn), with 61 to 63 °C; and `COC(=O)NC(=NS(=O)(=O)NC(C)C)OC(C)C`, with 62 to 64 °C.
For `CON1C=C2N=NC3=C(N2C1)N(C1CCCCC1)CC(C)=C3` the value was 174 to 177 °C; for `CCOC(=O)c1cn([C@@H](CSc2cccc(Cl)c2Cl)[C@H](C)O)cn1`, 141 to 143 °C.
For `CC(C#N)CCCC(N(C)C)C1(c2ccc(Cl)cc2)CCC1` (stereo not drawn) the value was 54 to 56 °C; for `CCOc1nn(Cc2ccc(OCc3nc(-c4ccccc4)oc3C)cc2)cc1CCC(=O)O`, 96 to 97 °C.
For `Cc1ccc(-c2nc(C)nn2-c2ccc(S(N)(=O)=O)cc2)cc1`, the melting point lay in the range of 248 to 249 °C.
Molecule `CC(C)(C)NC(=O)[C@@H]1CCCN1C(=O)[C@@H](O)[C@H](Cc1ccccc1)NC(=O)[C@H](CC(N)=O)NC(=O)COc1ccccc1N` registered a melting point of 107 to 114 °C.
Then `OCCC(c1ccccc1)C(O)(c1ccccc1)c1ccc(OCc2ccccc2)cc1` (stereo not drawn), with 109 to 115 °C; and `COc1ccc(C(=O)NNC(=O)c2ccccc2)cc1`, with 201 to 202 °C; and `Cc1ccc(Nc2nc(-c3cccc(C#N)c3)cs2)nc1`, with 268 to 272 °C.
For `O=C(c1cccs1)c1cccc2nc(N[C@@H]3CCc4ccccc43)ccc12`, the melting point was found to be 176 °C.
In turn, `C=CCON=C(CC)C1=C(O)CC(c2c(C)c(C)c3c(c2C)CC(C)(C)C3)CC1=O` (stereo not drawn) came in with a melting point of 63 to 65 °C.
Then `CC(=O)N(C(C)=O)c1c(C#N)cnn1-c1c(F)c(F)c(C)c(F)c1F`, with 132 to 133 °C; and `COC(=O)c1cc(OC)c(OCc2ccccc2)cc1N=CN(C)C`, with 134 to 140 °C.
Then `N#Cc1ccc(OCCCN2CCN(C(CC(=O)O)c3cccnc3)C(=O)C2=O)cc1` (single isomer, unassigned; (-)), with 199 to 200 °C; and `COC(=O)/C(C)=C1\CN2C(=O)CC2O1` (stereo not drawn), with 90 to 91 °C.
Then `O=c1[nH]c2ccccc2c(=O)n1CCS`, with 193 to 195 °C; and `Cn1nc(-c2ccccc2)c(C2CCCCC2)c1N`, with 212 to 214 °C.
In the case of `O=C(CS(=O)C(c1ccc(F)cc1)c1ccc(F)cc1)NO` (stereo not drawn), the melting point is 90 to 91 °C.
For `O=c1cc(-c2ccc(OCc3ccccc3)c(OCc3ccccc3)c2)oc2ccc(OCC3CO3)cc12` (stereo not drawn) the value was 147 to 149 °C.
For `Cn1ccnc1Sc1ccccc1[N+](=O)[O-]` the value was 117 to 119 °C.
Then `NC(Cc1cc(Cl)c(Sc2ccc(O)c(Cc3ccc(=O)[nH]c3)c2)c(Cl)c1)C(=O)O` (stereo not drawn), with 261 to 264 °C.
In turn, `COc1ccc(OC)c(SCCCCC#N)c1` had a melting point of 64 to 66 °C.
Then `O=C(CN1CCC(Cc2ccccc2)CC1)Nc1ccc2[nH]cnc2c1`, with 185 to 189 °C; and `CCOc1cc2ncc(C#N)c(Nc3ccc4c(c3)S(=O)(=O)C=C4)c2cc1OCC`, with 155 to 160 °C.
Then `COc1ccc(Cc2nc3cc(Cl)cc(CC=NO)c3o2)cc1OC1CCCC1`, with 149 to 151 °C; and `COc1ccc(Cc2cc(I)ccc2OC)cn1`, with 68 to 70 °C; and `O=C(O)c1cc(-c2ccccc2S(=O)(=O)NCCO)c2ccc3c(-c4ccccc4S(=O)(=O)NCCO)cc(C(=O)O)nc3c2n1`, with greater than 300 °C.
Then `CC(C)CN(C[C@H](O)COc1cccc2[nH]c3ccccc3c12)c1ccc(Oc2ccc(C(N)=O)cn2)cc1`, with 126 to 142 °C; and `COC(=O)CN(c1ccc(OC)cc1OC)S(N)(=O)=O`, with 100 to 103 °C.
In turn, `CNC(=NC(=O)OC)N(C)C` returned a melting point of 80 to 85 °C.
Regarding `Nc1c(-c2cc(Cl)ccc2O)c2cc(I)ccc2[nH]c1=O`, the melting point lay in the range of 160 to 162 °C.
For `O=NN1CCN(Cc2c[nH]c3ccccc23)CC1` the value was 116 to 118 °C; for `CC(C)(C)NC(=O)c1nn(-c2ccc(F)cc2Cl)c2c1C1CCC2C1` (stereo not drawn), 122 to 124 °C.
For `CC(C)n1cc(C(=O)Nc2nncs2)c2ccc(Cl)cc21` the value was 274 to 275 °C; for `CCOC(=O)c1n[nH]c(C)c1Cl`, 106 to 107 °C; for `CCC(=O)Nc1c(C(=O)c2cccc(Cl)c2)[nH]c2ccc(Cl)cc12`, 206 to 208 °C.
Turning to `COc1ccc(CCn2ccc3ccc(-c4cccc(C(=O)NCCC#N)c4)nc32)cc1OC`, the melting point lay within 138 to 139 °C.
For `O=C1c2ccccc2C(=O)N1C(Sc1ccccc1)c1ccccc1` (stereo not drawn) the value was 97 to 99 °C; for `CC(C)=CCOC(C)C1CC=C2C3=C(CCC21C)C1(C)CCC(O)C(C)(C)C1CC3` (stereo not drawn), 117 to 120 °C; for `O=C(NNC(=O)c1ncnc2[nH]ccc12)OCc1ccccc1`, 187 to 188 °C.
Then `COc1nc(C)c(C(C)=O)cc1NC(=S)N1CCN(c2cccc(O)c2)CC1`, with 114 to 115 °C; and `CCc1nc2c(cnn2CC)c(NC2CCOCC2)c1CNC(=O)c1cccc(C(=O)NCc2ccc(F)c(-c3cccc(CN4CCN(C(C)C)CC4)c3)c2)c1`, with 165 to 169 °C.
Then `CC(C)(C)OC(=O)NCC(=O)NCC(=O)OCc1ccccc1` (Boc-Gly-Gly-OBn), with 83 °C; and `OCCC#Cc1ccc2c(-c3ccc(Cl)cc3)nsc2c1`, with 128 to 129 °C; and `COC(=O)c1ccc(OCCNC(=O)c2ccc(F)cc2)cc1`, with 105 to 107 °C.
In the case of `CCCCCCCCC1(C)SC(=O)C=C1OCC(=O)Nc1ccc(OC)cc1` (stereo not drawn), the melting point stood at 99 °C.
For `O=[N+]([O-])c1ccc(Oc2ccc(F)cc2F)cc1` the value was 58 to 62 °C; for `Cc1cc(-c2nc3ccc(CN4CCN(C)CC4)cc3c(=O)[nH]2)cc(C)n1`, 229 to 230 °C.
Then `O=C1CCCN1CCCN=c1sc2ccccc2s1`, with 101 to 104 °C; and `COc1ccccc1N1CCN(CCCn2c(=O)[nH]c3ccsc3c2=O)CC1`, with 78 to 84 °C; and `COc1ccc(F)c2c(O)c(C=O)ccc12`, with 156 to 158 °C.
Then `CCOC(=O)Cc1ccc(NC(=O)C(COc2cccnc2)NS(=O)(=O)c2ccc(Br)cc2)cc1` (racemic), with 168 to 171 °C; and `CCn1nc(C)sc1=Nc1ccc(N2CCN(c3ccc(OC)cc3)CC2)cc1`, with 175 °C; and `N=c1n(CCO)c2ccccc2n1-c1ccccc1`, with 210 to 212 °C.
Consider `O=C1CCCCC1C(C[N+](=O)[O-])c1ccccc1Cl` (racemic), for which the melting point lay within 107 to 108 °C.
As for `S=C=Nc1cc(Cl)ccc1N1CCOCC1`, the melting point lay within 86 to 87 °C.
For `CCOC(=O)c1cnn(-c2ccc(Cl)c(Cl)c2)c1C#N` the value was 79 to 81 °C.
Then `Cc1ccc2nc(NC(=N)N)[nH]c2c1C`, with 122 to 124 °C; and `O=[N+]([O-])c1cnn2cnc3ccccc3c12`, with 177 to 178 °C; and `Nc1cc(Oc2ccc(NC(=O)Nc3ccc(-c4cccnc4)c(C(F)(F)F)c3)cc2)ncn1`, with 132 to 135 °C.
Then `Cc1c(/C=C/C(=O)c2cn(C)c3ccccc23)ncn1C(c1ccccc1)(c1ccccc1)c1ccccc1`, with 216 to 219 °C; and `COc1cnc(CS(C)(=O)=O)nc1OC(=O)NN1CCOCC1`, with 138 °C; and `O=S(=O)(Nc1ccc(Cl)cc1C(=NOCc1ccc(Br)cc1)c1ccccc1)C(F)(F)F`, with 55 to 56 °C.
Turning to `CCCOc1ccccc1-c1nc(C=NNC(=O)OCC)c[nH]1`, the melting point lay in the range of 129 to 132 °C.
Then `COc1ccccc1C(=O)c1cccc2c1ccn2S(=O)(=O)c1ccc(C)cc1`, with 154 °C; and `ON=c1cc(-c2cc3cccn3cn2)oc2ccc(OCCCOc3cccnc3)cc12`, with 202 to 205 °C; and `CCOC(=O)c1nc(NC)sc1-c1cn2ccccc2n1`, with 197 to 200 °C.
